In the supplement of paper PMC6045584:
± gives the standard deviation of the averaged measurements.

Legend:
SALINOMYCIN = compound: CC[C@@H](C(=O)[C@@H](C)[C@@H](O)[C@H](C)[C@@H]1O[C@@H]([C@@H](CC)C(=O)O)CC[C@@H]1C)[C@H]1O[C@]2(C=C[C@@H](O)[C@]3(CC[C@@](C)([C@H]4CC[C@](O)(CC)[C@H](C)O4)O3)O2)[C@H](C)C[C@@H]1C [SALINOMYCIN]; experiment: surviving fraction relative to DMSO-only wells; higher = less growth inhibition; conditions: exposure time: 5 days
How it was run: (§1)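 Viability was determined by CellTiter-Glo luminescence, expressed as surviving fraction normalised to the median of DMSO-only wells. The cells were log-phase tumour cell lines seeded at 250–500 per well in 384-well plates and, after 24 hours, exposed continuously for five days to inhibitors at 0.5, 1, 5, 10, 50, 100, 500 and 1000 nM. Three screens per line were run, keeping only lines with replicate Pearson r >0.7 and median Z' >0.3.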

FLUOROURACIL = compound: O=c1[nH]cc(F)c(=O)[nH]1 [FLUOROURACIL]; experiment: as above; conditions: exposure time: 5 days
How it was run: as §1

Test System | surviving fraction (SALINOMYCIN; 0.5 nM) | surviving fraction (SALINOMYCIN; 1 nM) | surviving fraction (SALINOMYCIN; 5 nM) | surviving fraction (SALINOMYCIN; 10 nM) | surviving fraction (SALINOMYCIN; 50 nM) | surviving fraction (SALINOMYCIN; 100 nM) | surviving fraction (SALINOMYCIN; 500 nM) | surviving fraction (SALINOMYCIN; 1000 nM) | surviving fraction (FLUOROURACIL; 0.5 nM) | surviving fraction (FLUOROURACIL; 1 nM) | surviving fraction (FLUOROURACIL; 5 nM) | surviving fraction (FLUOROURACIL; 10 nM) | surviving fraction (FLUOROURACIL; 50 nM) | surviving fraction (FLUOROURACIL; 100 nM) | surviving fraction (FLUOROURACIL; 500 nM) | surviving fraction (FLUOROURACIL; 1000 nM)
H23 LUNG | 0.969 ± 0.043 | 0.957 ± 0.055 | 0.9683 ± 0.0096 | 0.959 ± 0.04 | 1.21 ± 0.03 | 1.19 ± 0.028 | 0.622 ± 0.012 | 0.399 ± 0.007 | 1.06 ± 0.062 | 1.02 ± 0.034 | 1.05 ± 0.026 | 1.04 ± 0.036 | 1.1 ± 0.061 | 1.02 ± 0.046 | 1.04 ± 0.044 | 0.659 ± 0.029
HCC78 LUNG | 0.833 ± 0.18 | 0.693 ± 0.063 | 0.855 ± 0.17 | 0.948 ± 0.071 | 0.72 ± 0.095 | 0.697 ± 0.24 | 0.228 ± 0.014 | 0.143 ± 0.022 | 1.01 ± 0.16 | 0.913 ± 0.1 | 1.19 ± 0.12 | 0.986 ± 0.062 | 1.28 ± 0.093 | 1.1 ± 0.15 | 0.973 ± 0.1 | 0.432 ± 0.036
HCC202 BREAST | 1.39 ± 0.31 | 0.95 ± 0.16 | 0.918 ± 0.26 | 1.13 ± 0.17 | 1.03 ± 0.18 | 0.737 ± 0.16 | 0.189 ± 0.037 | 0.109 ± 0.0082 | 1.03 ± 0.41 | 1.22 ± 0.26 | 1.02 ± 0.15 | 1.13 ± 0.24 | 0.966 ± 0.12 | 1.15 ± 0.52 | 0.895 ± 0.3 | 0.866 ± 0.29
HCC1395 BREAST | 1.06 ± 0.1 | 1.26 ± 0.26 | 1.17 ± 0.11 | 1.05 ± 0.15 | 1.16 ± 0.13 | 1.11 ± 0.041 | 0.843 ± 0.13 | 0.751 ± 0.16 | 1.01 ± 0.093 | 0.966 ± 0.21 | 1.13 ± 0.1 | 1.16 ± 0.072 | 0.945 ± 0.1 | 0.955 ± 0.12 | 0.887 ± 0.053 | 0.947 ± 0.077
HCC1806 BREAST | 0.957 ± 0.25 | 0.695 ± 0.59 | 0.819 ± 0.58 | 0.709 ± 0.61 | 0.965 ± 0.17 | 0.873 ± 0.04 | 0.33 ± 0.056 | 0.223 ± 0.0067 | 1.1 ± 0.028 | 1.02 ± 0.12 | 1.08 ± 0.043 | 0.973 ± 0.081 | 0.992 ± 0.069 | 0.939 ± 0.065 | 0.737 ± 0.12 | 0.601 ± 0.033
HCC1954 BREAST | 0.944 ± 0.29 | 0.82 ± 0.39 | 0.919 ± 0.36 | 1.03 ± 0.088 | 0.953 ± 0.011 | 0.725 ± 0.04 | 0.295 ± 0.0032 | 0.172 ± 0.023 | 1.13 ± 0.31 | 1.21 ± 0.17 | 1.13 ± 0.07 | 1.26 ± 0.21 | 0.572 ± 0.11 | 0.629 ± 0.063 | 0.681 ± 0.095 | 0.571 ± 0.018
HCT15 LARGE INTESTINE | 0.933 ± 0.022 | 0.843 ± 0.059 | 0.894 ± 0.028 | 0.589 ± 0.016 | 1.03 ± 0.041 | 0.964 ± 0.015 | 0.893 ± 0.032 | 0.442 ± 0.029 | 1.05 ± 0.062 | 1.01 ± 0.051 | 1.043 ± 0.01 | 0.995 ± 0.06 | 0.976 ± 0.069 | 0.878 ± 0.048 | 0.262 ± 0.013 | 0.163 ± 0.0084
HELA CERVIX | 0.974 ± 0.053 | 0.936 ± 0.068 | 0.97 ± 0.059 | 0.906 ± 0.041 | 1.03 ± 0.06 | 0.885 ± 0.056 | 0.942 ± 0.056 | 0.55 ± 0.045 | 1.07 ± 0.017 | 0.993 ± 0.031 | 0.997 ± 0.019 | 1.03 ± 0.037 | 1.01 ± 0.062 | 1.06 ± 0.027 | 1.3 ± 0.035 | 1.15 ± 0.096
HOS BONE | 0.99 ± 0.0076 | 0.969 ± 0.0052 | 0.997 ± 0.023 | 0.966 ± 0.0082 | 1.03 ± 0.012 | 0.858 ± 0.032 | 0.0367 ± 0.0031 | 0.0627 ± 0.019 | 1.05 ± 0.025 | 1.01 ± 0.017 | 1.02 ± 0.015 | 0.99 ± 0.015 | 1.03 ± 0.039 | 1.01 ± 0.034 | 0.8203 ± 0.0081 | 0.639 ± 0.032
HOSMNG BONE | 0.987 ± 0.1 | 0.945 ± 0.13 | 1.03 ± 0.086 | 0.985 ± 0.15 | 1.05 ± 0.13 | 0.993 ± 0.18 | 0.909 ± 0.09 | 0.511 ± 0.12 | 0.969 ± 0.012 | 1.03 ± 0.037 | 0.933 ± 0.024 | 0.962 ± 0.043 | 1.12 ± 0.13 | 1.19 ± 0.042 | 1.03 ± 0.031 | 1.02 ± 0.037
HSSYII SYNOVIAL | 0.892 ± 0.033 | 0.842 ± 0.027 | 0.864 ± 0.043 | 0.582 ± 0.026 | 0.94 ± 0.017 | 0.743 ± 0.033 | 0.0705 ± 0.0015 | 0.0267 ± 0.0019 | 0.933 ± 0.045 | 0.938 ± 0.078 | 0.992 ± 0.075 | 0.949 ± 0.043 | 0.942 ± 0.016 | 0.911 ± 0.059 | 0.906 ± 0.028 | 0.853 ± 0.02
HT1080 SOFT TISSUE | 1.03 ± 0.034 | 1.02 ± 0.015 | 1.03 ± 0.024 | 1.05 ± 0.031 | 1.06 ± 0.03 | 1.03 ± 0.089 | 0.78 ± 0.035 | 0.557 ± 0.018 | 1.06 ± 0.016 | 1.087 ± 0.0087 | 1.07 ± 0.0075 | 1.07 ± 0.029 | 0.965 ± 0.061 | 0.991 ± 0.021 | 0.637 ± 0.063 | 0.406 ± 0.019
HU09 BONE | 1.06 ± 0.035 | 1.01 ± 0.019 | 1.12 ± 0.14 | 1.03 ± 0.091 | 1.04 ± 0.12 | 0.897 ± 0.077 | 0.476 ± 0.036 | 0.271 ± 0.0068 | 1.06 ± 0.13 | 0.966 ± 0.045 | 1.1 ± 0.022 | 1.1 ± 0.038 | 0.985 ± 0.092 | 0.941 ± 0.051 | 0.693 ± 0.091 | 0.604 ± 0.031
HUO3N1 BONE | 1.01 ± 0.052 | 0.984 ± 0.073 | 1.01 ± 0.04 | 1.02 ± 0.071 | 0.844 ± 0.012 | 0.51 ± 0.023 | 0.167 ± 0.0067 | 0.151 ± 0.0097 | 1 ± 0.047 | 1.06 ± 0.02 | 1.09 ± 0.031 | 1.07 ± 0.05 | 1.03 ± 0.059 | 0.99 ± 0.046 | 0.973 ± 0.036 | 0.91 ± 0.029
JIMT1 BREAST | 0.96 ± 0.014 | 0.977 ± 0.021 | 0.979 ± 0.021 | 0.999 ± 0.021 | 0.988 ± 0.033 | 0.95 ± 0.013 | 0.51 ± 0.024 | 0.356 ± 0.02 | 0.932 ± 0.0056 | 0.899 ± 0.021 | 0.979 ± 0.033 | 0.9068 ± 0.0066 | 0.94 ± 0.038 | 0.884 ± 0.062 | 0.948 ± 0.066 | 0.866 ± 0.076
JURKAT HAEMATOPOIETIC AND LYMPHOID TISSUE | 1.08 ± 0.011 | 1.09 ± 0.028 | 1.03 ± 0.02 | 1.04 ± 0.042 | 0.815 ± 0.024 | 0.673 ± 0.018 | 0.23 ± 0.005 | 0.101 ± 0.0053 | 1.14 ± 0.028 | 1.09 ± 0.0023 | 1.09 ± 0.049 | 1.09 ± 0.016 | 1.04 ± 0.069 | 1.03 ± 0.061 | 1.07 ± 0.022 | 0.842 ± 0.057
